In patent publication US12545637B2, “Extrahepatic targeted cationic lipid compound with high efficiency and low toxicity and its composition” (BEIJING YOUCARE KECHUANG PHARMACEUTICAL TECHNOLOGY CO., LTD., priority 2023, dated 2026):

Columns and labels:
293T cells [1] = assay: Cell transfection test of LNP formulation of eGFP-mRNA (optimization of preparation conditions); format: cell-based; details: for transfection efficiency at different molar ratios of polymer-conjugated lipid DMG-PEG2000 to carrier: 0.5% to 15%; for transfection effect at different molar ratios of cationic lipid, neutral lipid, structured lipid and polymer-conjugated lipid: 75:5:15:5 to 25:5:65:5
293T cells [2] = assay: Fluorescent detection of Fluc-mRNA (cell transfection efficiency of LNP formulations); format: cell-based; details: for RLU value, times that of ALC-0315: ratio vs ALC-0315; for RLU value, times that of HHMA: ratio vs HHMA; for RLU value, times that of Lipofectamine 3000: ratio vs Lipofectamine 3000; for RLU value, times that of YK-009: ratio vs YK-009; for RLU value, times that of YK-405: ratio vs YK-405; for RLU value, times that of YK-406: ratio vs YK-406; for RLU value, times that of YK-408: ratio vs YK-408; for RLU value, times that of YK-409: ratio vs YK-409; for RLU value, times that of YK-410: ratio vs YK-410; for cell transfection efficiency, times that of YK-412: ratio vs YK-412; for cell transfection efficiency, times that of YK-413: ratio vs YK-413; for cell transfection efficiency, times that of YK-414: ratio vs YK-414; for cell transfection efficiency, times that of YK-416: ratio vs YK-416; for cell transfection efficiency, times that of YK-419: ratio vs YK-419; for cell transfection efficiency, times that of YK-420: ratio vs YK-420; for cell transfection efficiency, times that of YK-421: ratio vs YK-421
[3] = Particle size and polydispersity index (PDI) of lipid nanoparticles by dynamic light scattering; format: physicochemical; details: for PDI: LNP formulation of the cationic lipid, 25° C.; for Particle size: LNP formulation of the cationic lipid/DSPC/cholesterol/DMG-PEG2000 49:10:39.5:1.5, 25° C.
Protocol: The particle size and polydispersity index (PDI) were determined by dynamic light scattering using Malvern laser particle size analyzer.
10 μL of the liposome solution was weighed, diluted to 1 mL with RNase-free deionized water, and added to the sample pool. Each sample was measured in triplicate. The measurement conditions were: […] scattering angle, and 25° C.

293T cells [4] = assay: Cell survival rate assay (CCK-8); format: cell-based; details: for Cell survival rate: LNP with 1.5 μg Fluc-mRNA, 24 hours, CCK-8; for cell survival rate higher than ALC-0315: difference vs ALC-0315; for cell survival rate higher than HIMA: difference vs HIMA (HHMA); for cell survival rate higher than Lipofectamine 3000: difference vs Lipofectamine 3000; for cell survival rate higher than SM-102: difference vs SM-102; for cell survival rate higher than YK-404: difference vs YK-404; for cell survival rate higher than YK-405: difference vs YK-405; for cell survival rate higher than YK-406: difference vs YK-406; for cell survival rate higher than YK-408: difference vs YK-408; for cell survival rate higher than YK-409: difference vs YK-409; for cell survival rate higher than YK-410: difference vs YK-410; for cell survival rate higher than YK-411: difference vs YK-411; for cell survival rate higher than YK-412: difference vs YK-412; for cell survival rate higher than YK-413: difference vs YK-413; for cell survival rate higher than YK-414: difference vs YK-414; for cell survival rate higher than YK-415: difference vs YK-415; for cell survival rate higher than YK-416: difference vs YK-416; for cell survival rate higher than YK-417: difference vs YK-417; for cell survival rate higher than YK-418: difference vs YK-418; for cell survival rate higher than YK-419: difference vs YK-419; for cell survival rate higher than YK-420: difference vs YK-420; for cell survival rate higher than YK-421: difference vs YK-421; for cell survival rate higher than YK-424: difference vs YK-424; for cell survival rate higher than compound 21: difference vs compound 21; for cell survival rate higher than compound 23: difference vs compound 23; for cytotoxicity reduced compared with YK-411: rounded summary statement vs YK-411
Outline: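 293T cells seeded at 10,000 cells/well, cultured overnight, then exposed 24 h to LNP carrying 1.5 μg Fluc-mRNA (cationic:neutral:structured:PEG-type lipid 49:10:39.5:1.5) or Lipofectamine 3000. Viability read by CCK-8, 1 h incubation, absorbance at 450 nm.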

293T cells [5] = assay: Fluorescent detection of Fluc-mRNA (cell transfection efficiency of LNP formulations); format: cell-based; details: for Relative light unit (RLU): LNP with 0.3 μg Fluc-mRNA, 96-well plate, 24 hours; for cell transfection efficiency, times that of YK-415: ratio vs YK-415; for cell transfection efficiency, times that of YK-417: ratio vs YK-417; for cell transfection efficiency, times that of YK-418: ratio vs YK-418; for cell transfection efficiency, times that of YK-424: ratio vs YK-424; for RLU value, times that of compound 21: ratio vs compound 21; for RLU value, times that of compound 23: ratio vs compound 23

CCCCCCCCC(CCCCCCCC)COC(=O)CCCCCN(CCCO)CCN(CCCO)CCCCCC(=O)OCC(CCCCCCCC)CCCCCCCC [YK-422, di(2-octyldecyl) 6,6′-(ethane-1,2-diyl-bis((3-hydroxypropyl)azanediyl))dihexanoate]
transfection efficiency at different molar ratios of polymer-conjugated lipid DMG-PEG2000 to carrier (293T cells [1]): same results | transfection effect at different molar ratios of cationic lipid, neutral lipid, structured lipid and polymer-conjugated lipid (293T cells [1]): same results | RLU value, times that of ALC-0315 (293T cells [2]): 2.94 | RLU value, times that of HHMA (293T cells [2]): 3.09 | RLU value, times that of Lipofectamine 3000 (293T cells [2]): 5.36 | RLU value, times that of YK-009 (293T cells [2]): 1.25 | RLU value, times that of YK-405 (293T cells [2]): 2.01 | RLU value, times that of YK-406 (293T cells [2]): 82.21 | RLU value, times that of YK-408 (293T cells [2]): 4.36 | RLU value, times that of YK-409 (293T cells [2]): 9.60 | RLU value, times that of YK-410 (293T cells [2]): 15.77 | cell transfection efficiency, times that of YK-412 (293T cells [2]): 1.91 | cell transfection efficiency, times that of YK-413 (293T cells [2]): 4.67 | cell transfection efficiency, times that of YK-414 (293T cells [2]): 14.49 | cell transfection efficiency, times that of YK-416 (293T cells [2]): 1.62 | cell transfection efficiency, times that of YK-419 (293T cells [2]): 2.03 | cell transfection efficiency, times that of YK-420 (293T cells [2]): 1.60 | cell transfection efficiency, times that of YK-421 (293T cells [2]): 13.79 | PDI [3]: 13.9% | Particle size [3]: 146 nm | Cell survival rate (293T cells [4]): 70.48% | cell survival rate higher than ALC-0315 (293T cells [4]): 23.27% | cell survival rate higher than HIMA (293T cells [4]): 6.21% | cell survival rate higher than Lipofectamine 3000 (293T cells [4]): 48.82% | cell survival rate higher than SM-102 (293T cells [4]): 2.58% | cell survival rate higher than YK-404 (293T cells [4]): 28.36% | cell survival rate higher than YK-405 (293T cells [4]): 28.62% | cell survival rate higher than YK-406 (293T cells [4]): 45.52% | cell survival rate higher than YK-408 (293T cells [4]): 28.17% | cell survival rate higher than YK-409 (293T cells [4]): 24.37% | cell survival rate higher than YK-410 (293T cells [4]): 25.56% | cell survival rate higher than YK-411 (293T cells [4]): 54.15% | cell survival rate higher than YK-412 (293T cells [4]): 16.34% | cell survival rate higher than YK-413 (293T cells [4]): 23.28% | cell survival rate higher than YK-414 (293T cells [4]): 41.73% | cell survival rate higher than YK-415 (293T cells [4]): 9.32% | cell survival rate higher than YK-416 (293T cells [4]): 29.51% | cell survival rate higher than YK-417 (293T cells [4]): 49.14% | cell survival rate higher than YK-418 (293T cells [4]): 49.43% | cell survival rate higher than YK-419 (293T cells [4]): 31.56% | cell survival rate higher than YK-420 (293T cells [4]): 34.89% | cell survival rate higher than YK-421 (293T cells [4]): 34.77% | cell survival rate higher than YK-424 (293T cells [4]): 42.55% | cell survival rate higher than compound 21 (293T cells [4]): 2.64% | cell survival rate higher than compound 23 (293T cells [4]): 1.37% | cytotoxicity reduced compared with YK-411 (293T cells [4]): 50% | Relative light unit (RLU) (293T cells [5]): 6432971 RLU | cell transfection efficiency, times that of YK-415 (293T cells [5]): 21.59 | cell transfection efficiency, times that of YK-417 (293T cells [5]): 54.85 | cell transfection efficiency, times that of YK-418 (293T cells [5]): 57.82 | cell transfection efficiency, times that of YK-424 (293T cells [5]): 2.23 | RLU value, times that of compound 21 (293T cells [5]): 4.26 | RLU value, times that of compound 23 (293T cells [5]): 4.59

CCCCCCCCC(CCCCCCCC)COC(=O)CCCCCN(CCCO)CCCN(CCCO)CCCCCC(=O)OCC(CCCCCCCC)CCCCCCCC [YK-423, di(2-octyldecyl) 6,6′-(propan-1,3-diyl-bis((3-hydroxypropyl)azanediyl))dihexanoate]
transfection efficiency at different molar ratios of polymer-conjugated lipid DMG-PEG2000 to carrier (293T cells [1]): same results | transfection effect at different molar ratios of cationic lipid, neutral lipid, structured lipid and polymer-conjugated lipid (293T cells [1]): same results | RLU value, times that of ALC-0315 (293T cells [2]): 2.84 | RLU value, times that of HHMA (293T cells [2]): 3.00 | RLU value, times that of Lipofectamine 3000 (293T cells [2]): 5.19 | RLU value, times that of YK-009 (293T cells [2]): 1.21 | RLU value, times that of YK-405 (293T cells [2]): 1.95 | RLU value, times that of YK-406 (293T cells [2]): 79.58 | RLU value, times that of YK-408 (293T cells [2]): 4.22 | RLU value, times that of YK-409 (293T cells [2]): 9.30 | RLU value, times that of YK-410 (293T cells [2]): 15.27 | cell transfection efficiency, times that of YK-412 (293T cells [2]): 1.85 | cell transfection efficiency, times that of YK-413 (293T cells [2]): 4.52 | cell transfection efficiency, times that of YK-414 (293T cells [2]): 14.02 | cell transfection efficiency, times that of YK-416 (293T cells [2]): 1.57 | cell transfection efficiency, times that of YK-419 (293T cells [2]): 1.97 | cell transfection efficiency, times that of YK-420 (293T cells [2]): 1.55 | cell transfection efficiency, times that of YK-421 (293T cells [2]): 13.35 | PDI [3]: 11.7% | Particle size [3]: 175 nm | Cell survival rate (293T cells [4]): 71.14% | cell survival rate higher than ALC-0315 (293T cells [4]): 23.93% | cell survival rate higher than HIMA (293T cells [4]): 6.87% | cell survival rate higher than Lipofectamine 3000 (293T cells [4]): 49.48% | cell survival rate higher than SM-102 (293T cells [4]): 3.24% | cell survival rate higher than YK-404 (293T cells [4]): 29.02% | cell survival rate higher than YK-405 (293T cells [4]): 29.28% | cell survival rate higher than YK-406 (293T cells [4]): 46.18% | cell survival rate higher than YK-408 (293T cells [4]): 28.83% | cell survival rate higher than YK-409 (293T cells [4]): 25.03% | cell survival rate higher than YK-410 (293T cells [4]): 26.22% | cell survival rate higher than YK-411 (293T cells [4]): 54.81% | cell survival rate higher than YK-412 (293T cells [4]): 17.00% | cell survival rate higher than YK-413 (293T cells [4]): 23.94% | cell survival rate higher than YK-414 (293T cells [4]): 42.39% | cell survival rate higher than YK-415 (293T cells [4]): 9.98% | cell survival rate higher than YK-416 (293T cells [4]): 30.17% | cell survival rate higher than YK-417 (293T cells [4]): 49.80% | cell survival rate higher than YK-418 (293T cells [4]): 50.09% | cell survival rate higher than YK-419 (293T cells [4]): 32.22% | cell survival rate higher than YK-420 (293T cells [4]): 35.55% | cell survival rate higher than YK-421 (293T cells [4]): 35.43% | cell survival rate higher than YK-424 (293T cells [4]): 43.21% | cell survival rate higher than compound 21 (293T cells [4]): 3.30% | cell survival rate higher than compound 23 (293T cells [4]): 2.03% | cytotoxicity reduced compared with YK-411 (293T cells [4]): 50% | Relative light unit (RLU) (293T cells [5]): 6227115 RLU | cell transfection efficiency, times that of YK-415 (293T cells [5]): 20.89 | cell transfection efficiency, times that of YK-417 (293T cells [5]): 53.09 | cell transfection efficiency, times that of YK-418 (293T cells [5]): 55.97 | cell transfection efficiency, times that of YK-424 (293T cells [5]): 2.16 | RLU value, times that of compound 21 (293T cells [5]): 4.12 | RLU value, times that of compound 23 (293T cells [5]): 4.44
